PubChem BioAssay (NCI)
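Five concentrations, 48 hours, 96-well plates. GI50 is the concentration that inhibits growth by half. TGI: total growth inhibition.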

Key:
Assay in all cases: NCI-60 cell line screen, 48 h
BT-549 breast = test system: BT-549 breast
NCI-H23 lung = test system: NCI-H23 lung
HOP-92 NSCLC = test system: HOP-92 NSCLC
RXF 393 renal = test system: RXF 393 renal
MDA-MB-231 breast = test system: MDA-MB-231 breast
A498 renal = test system: A498 renal
NCI-H226 lung = test system: NCI-H226 lung
NCI/ADR-RES ovarian = test system: NCI/ADR-RES ovarian
HT29 colon = test system: HT29 colon
SK-MEL-2 melanoma = test system: SK-MEL-2 melanoma
MALME-3M melanoma = test system: MALME-3M melanoma
PC-3 prostate = test system: PC-3 prostate
OVCAR-4 ovarian = test system: OVCAR-4 ovarian
NCI-H460 lung = test system: NCI-H460 lung
MOLT-4 leukemia = test system: MOLT-4 leukemia
MDA-MB-435 = test system: MDA-MB-435
IGROV1 ovarian = test system: IGROV1 ovarian
UACC-62 melanoma = test system: UACC-62 melanoma
SK-MEL-28 melanoma = test system: SK-MEL-28 melanoma
M14 melanoma = test system: M14 melanoma
KM12 colon = test system: KM12 colon
LOX IMVI melanoma = test system: LOX IMVI melanoma
DU-145 prostate = test system: DU-145 prostate
HOP-62 NSCLC = test system: HOP-62 NSCLC
T-47D breast = test system: T-47D breast
SK-OV-3 ovarian = test system: SK-OV-3 ovarian
SF-295 CNS = test system: SF-295 CNS
CCRF-CEM leukemia = test system: CCRF-CEM leukemia
HCT-15 colon = test system: HCT-15 colon
UACC-257 melanoma = test system: UACC-257 melanoma
RPMI-8226 leukemia = test system: RPMI-8226 leukemia
ACHN renal = test system: ACHN renal
HCT-116 colon = test system: HCT-116 colon
CAKI-1 renal = test system: CAKI-1 renal
K-562 leukemia = test system: K-562 leukemia
SK-MEL-5 melanoma = test system: SK-MEL-5 melanoma
SNB-75 CNS = test system: SNB-75 CNS
SR leukemia = test system: SR leukemia
TK-10 renal = test system: TK-10 renal
HCC-2998 colon = test system: HCC-2998 colon
NCI-H522 lung = test system: NCI-H522 lung
MCF7 breast = test system: MCF7 breast
OVCAR-8 ovarian = test system: OVCAR-8 ovarian
SW-620 colon = test system: SW-620 colon
EKVX NSCLC = test system: EKVX NSCLC
786-0 renal = test system: 786-0 renal
HL-60(TB) leukemia = test system: HL-60(TB) leukemia
U251 CNS = test system: U251 CNS
SF-268 CNS = test system: SF-268 CNS
A549 NSCLC = test system: A549 NSCLC
OVCAR-5 ovarian = test system: OVCAR-5 ovarian
COLO 205 colon = test system: COLO 205 colon
SF-539 CNS = test system: SF-539 CNS
HS 578T breast = test system: HS 578T breast
UO-31 renal = test system: UO-31 renal
SN12C renal = test system: SN12C renal
SNB-19 CNS = test system: SNB-19 CNS

## CNC(=O)c1cc(N2CCc3cc(NC(=O)Nc4ccc(N5CCN(C)CC5)c(C(F)(F)F)c4)ccc32)ccn1
BT-549 breast
  GI50: 4.59 µM
  TGI: 14.4 µM
NCI-H23 lung
  GI50: 3.73 µM
  TGI: 8.06 µM
HOP-92 NSCLC
  GI50: 21.4 µM
  TGI: > 25 µM
RXF 393 renal
  GI50: 0.815 µM
  TGI: 3.15 µM
MDA-MB-231 breast
  GI50: 3.48 µM
  TGI: 7.83 µM
A498 renal
  GI50: 7.9 µM
  TGI: > 25 µM
NCI-H226 lung
  GI50: > 25 µM
  TGI: > 25 µM
NCI/ADR-RES ovarian
  GI50: 5.27 µM
  TGI: 12 µM
HT29 colon
  GI50: 1.31 µM
  TGI: 4.91 µM
SK-MEL-2 melanoma
  GI50: 4.56 µM
  TGI: 8.66 µM
MALME-3M melanoma
  GI50: 3.72 µM
  TGI: 7.52 µM
PC-3 prostate
  GI50: 4.36 µM
  TGI: 15.3 µM
OVCAR-4 ovarian
  GI50: 3.96 µM
  TGI: 8.69 µM
NCI-H460 lung
  GI50: 3.78 µM
  TGI: 7.68 µM
MOLT-4 leukemia
  GI50: 1.18 µM
  TGI: 22 µM
MDA-MB-435
  GI50: 3.99 µM
  TGI: 7.6 µM
IGROV1 ovarian
  GI50: 4.6 µM
  TGI: 9.53 µM
UACC-62 melanoma
  GI50: 4.48 µM
  TGI: 9.4 µM
SK-MEL-28 melanoma
  GI50: 3.7 µM
  TGI: 7.19 µM
M14 melanoma
  GI50: 3.34 µM
  TGI: 6.67 µM
KM12 colon
  GI50: 0.862 µM
  TGI: 4.24 µM
LOX IMVI melanoma
  GI50: 3.44 µM
  TGI: 7.14 µM
DU-145 prostate
  GI50: 4.22 µM
  TGI: 8.12 µM
HOP-62 NSCLC
  GI50: 4.02 µM
  TGI: 8.34 µM
T-47D breast
  GI50: 4.14 µM
  TGI: 9.32 µM
SK-OV-3 ovarian
  GI50: > 25 µM
  TGI: > 25 µM
SF-295 CNS
  GI50: 0.541 µM
  TGI: 1.33 µM
CCRF-CEM leukemia
  GI50: 1.17 µM
  TGI: 21.6 µM
HCT-15 colon
  GI50: 0.879 µM
  TGI: 3.59 µM
UACC-257 melanoma
  GI50: 4.31 µM
  TGI: 8.05 µM
RPMI-8226 leukemia
  GI50: 0.742 µM
  TGI: 2.69 µM
ACHN renal
  GI50: 3.92 µM
  TGI: 7.31 µM
HCT-116 colon
  GI50: 2.22 µM
  TGI: 5.35 µM
CAKI-1 renal
  GI50: 4.43 µM
  TGI: 9.07 µM
K-562 leukemia
  GI50: 0.69 µM
  TGI: 2.19 µM
SK-MEL-5 melanoma
  GI50: 4.32 µM
  TGI: 7.89 µM
SNB-75 CNS
  GI50: 2.55 µM
  TGI: 5.75 µM
SR leukemia
  GI50: 0.79 µM
  TGI: 4.43 µM
TK-10 renal
  GI50: 5.42 µM
  TGI: 11.1 µM
HCC-2998 colon
  GI50: 4.13 µM
  TGI: 7.83 µM
NCI-H522 lung
  GI50: 4.87 µM
  TGI: 9.54 µM
MCF7 breast
  GI50: 2.96 µM
  TGI: 7.39 µM
OVCAR-8 ovarian
  GI50: 4.48 µM
  TGI: 8.67 µM
SW-620 colon
  GI50: 0.881 µM
  TGI: 2.87 µM
EKVX NSCLC
  GI50: 3.95 µM
  TGI: 7.73 µM
786-0 renal
  GI50: 2.86 µM
  TGI: 6.15 µM
HL-60(TB) leukemia
  GI50: 4.28 µM
  TGI: 11.9 µM
U251 CNS
  GI50: 2.45 µM
  TGI: 5.75 µM
SF-268 CNS
  GI50: 4.08 µM
  TGI: 9.86 µM
A549 NSCLC
  GI50: 3.94 µM
  TGI: 7.99 µM
OVCAR-5 ovarian
  GI50: 3.76 µM
  TGI: 8.4 µM
COLO 205 colon
  GI50: 4.54 µM
  TGI: 8.71 µM
SF-539 CNS
  GI50: 1.03 µM
  TGI: 4.15 µM
HS 578T breast
  GI50: 3.49 µM
  TGI: 9.66 µM
UO-31 renal
  GI50: 4.22 µM
  TGI: 9.43 µM
SN12C renal
  GI50: 4.05 µM
  TGI: 8.1 µM
SNB-19 CNS
  GI50: 3.6 µM
  TGI: 8.12 µM
